The values that follow come from patent US5674867A, “Indolocarbazole derivatives and therapeutic method for stimulating megakaicyocyte production” (Kyowa Hakko Kogyo Co., Ltd., priority 1992, dated 1997).

Several values for one entry are separate records, joined by “and”; a condition that tells them apart may be missing. Identical values can stand only once.

One data set is described as follows: Acute toxicity test. As to conditions: mouse, in vivo, ip; male DDY mice, intraperitoneal, survival after 24 hours; read-out: LD50 (50% survival dose). The procedure:
To 6-weeks-old male DDY mice (3 per group) was intraperitoneally administered 0.2 ml of a solution of a test compound in a phosphate-buffered physiological saline. The 50% survival doses (LD50) were calculated from the survival rate after 24 hours. The LD50 for Compounds I-1, 17, 25, 26, 30-33, 35, 40 and 52 was >1 mg/kg, while that for all the other compounds was >30 mg/kg.

Data set [1] relates to bone marrow cells (megakaryocyte colony formation). Nature of the data set: Megakaryocyte colony formation-stimulating activity (ACHE-stained colonies, bone marrow cells with IL-3). As to conditions: 1 nM; with IL-3 100 U/ml; 7 days. It counts as cell-based, BALB/c mouse. The procedure: An eight-weeks-old BALB/c mouse was killed. Its femurs and cervical vertebrae were taken out, and both end sections thereof were cut off. Bone marrow cells were collected from the pieces cut off from the femurs and cervical vertebrae using a syringe containing IMDM (430-2200EA prepared by Gibco Co.), and then blown into a test tube. The test tube was allowed to stand for 5 minutes, and the supernatant was collected with a pipet. To a reaction mixture comprising the bone marrow cells (50,000 cells), bovine serum albumin (2%: A4508 made by Sigma Co.), transferrin (600 μg/ml 652202 made by Boehringer Mannheim Co.), IL-3 (100 U/ml), cholesterol (16 μg/ml: 036-0641 made by Wako Co.) and agar (0.6%: 0142-02 made by Difco Laboratories) were separately added the test compounds at various concentrations, and 1 ml each of the mixtures was put into a 35-mm dish (Lux Co.), followed by incubation under the conditions of 37° C., 5% CO2 and a humidity of 95% or more for 7 days. Separately, IL-3 alone was added to the bone marrow cells to prepare a control, whereas a positive control was prepared by adding 200 U/ml IL-6 to the above-mentioned reaction mixture. After the incubation was completed, the agar was dried over a filter paper (1001-055 made by Whatman Co.) and then fixed with 2.5% glutaraldehyde, followed by acetylcholinesterase staining (ACHE staining).
The ACHE staining was carried out by the method described below.
ACHE staining: To each sample was added a solution comprising 0.67 mg/ml acetylthiocholine iodide, 2.94 mg/ml sodium citrate, 7.5 mg/ml copper (II) sulfate and 1.65 mg/ml potassium ferricyanide, and the mixture was allowed to stand at room temperature in the dark for 4-6 hours.
A group of 4 or more megakaryocytes which were stained reddish brown was regarded as a colony, and the number of colonies per dish was calculated using a microscope. The results are shown in Table 2 as relative values to the control.

A further data set has as its system platelets. In words: Platelet production-stimulating activity in mice. The format is in vivo, BALB/c mice. The note with it: 7.5 mg/kg/day × 5, caudal vein; for Number of platelets, individual mouse: 7.5 mg/kg/day. As to the method:
BALB/c mice (male, 7-weeks-old) were divided into 2 groups. To one group (control group) was administered a solvent (1% lactic acid, 4% aqueous solution of glucose) alone. On the other hand, the test group (Compound I-1-administered group) received 0.2 ml of a solution of Compound I-1 in the above solvent at a dose of 7.5 mg/kg via the caudal vein once a day for 5 days (Day 1-Day 5). On the day before the administration (Day 0) and the seventh day after the start of administration (Day 7), the ninth day (Day 9), the 14th day (Day 14) and the 21st day (Day 21), 20 μl of blood was collected from the fundus oculi vein of the mice of each group, and the number of the platelets was counted with a microcell counter (Type CC-180A made by Toa Iryo Denshi Co.).

Usually LD50 stands for the dose at which mortality reaches 50%. `CNC1CC2OC(C)(C1OC)n1c3ccccc3c3c4c(c5c6ccccc6n2c5c31)C(=O)NC4O` (centres unmarked) [Compound I-1]: the LD50 at 24 h in the data set “Acute toxicity test” was more than 1 mg/kg. Also, in data set [1], the “Relative value (megakaryocyte colonies, control = 100)” value is on record as 127. In addition, the “Number of platelets, individual mouse” value in the data set with platelets (Day 0 (day before administration)) was 92.6 × 10^4 /mm^3 and 90.5 × 10^4 /mm^3 and 94.2 × 10^4 /mm^3 and 117.6 × 10^4 /mm^3 and 111.7 × 10^4 /mm^3 and 95.5 × 10^4 /mm^3; in the data set on platelets (Day 7), 103.1 × 10^4 /mm^3 and 91.8 × 10^4 /mm^3 and 119.4 × 10^4 /mm^3 and 155.7 × 10^4 /mm^3 and 136.3 × 10^4 /mm^3 and 111.2 × 10^4 /mm^3; in the data set with platelets (Day 9) it was 125.3 × 10^4 /mm^3 and 160.0 × 10^4 /mm^3 and 144.5 × 10^4 /mm^3 and 136.1 × 10^4 /mm^3 and 146.8 × 10^4 /mm^3; with platelets (Day 14) it was 125.3 × 10^4 /mm^3 and 106.4 × 10^4 /mm^3 and 121.1 × 10^4 /mm^3 and 145.4 × 10^4 /mm^3 and 112.3 × 10^4 /mm^3 and 115.0 × 10^4 /mm^3; in the data set with platelets (Day 21), 133.9 × 10^4 /mm^3 and 202.7 × 10^4 /mm^3 and 153.0 × 10^4 /mm^3 and 139.6 × 10^4 /mm^3 and 135.5 × 10^4 /mm^3 and 163.9 × 10^4 /mm^3. Further, the “Number of platelets (Average)” value in the data set with platelets (Day 0 (day before administration), control average 110.9) is recorded as 100.4 × 10^4 /mm^3; in the data set on platelets (Day 7, control average 133.4), 119.6 × 10^4 /mm^3; in the data set with platelets (Day 9, control average 114.5), 145.5 × 10^4 /mm^3; in the data set on platelets (Day 14, control average 109.1), 120.9 × 10^4 /mm^3; in the data set with platelets (Day 21, control average 114.3) it was 154.8 × 10^4 /mm^3. Moreover, the “% Relative value (number of platelets, Day 0 = 100)” value in the data set on platelets (Day 0, control 100) was 100%; in the data set on platelets (Day 7, control 120.3), 119.1%; with platelets (Day 9, control 103.2), 144.9%; in the data set with platelets (Day 14, control 98.4), 120.4%; in the data set with platelets (Day 21, control 103.1) it was 154.2%.
